One experiment addresses TcSir2rp1 (Trypanosoma cruzi, UniProt Q4DVL9). Put plainly: TcSir2rp1 NAD+-dependent deacetylase fluorimetric assay (CycLex kit). In kind it is biochemical. The method, then: The deacetylase activity was measured using the commercial SIRT1/Sir2 Deacetylase Fluorometric Assay Kit (CycLex,Japan) according to the manufacturer’s recommendations. Briefly, fluorescence emission after digestion of deacetylated substrates by a lysine specific endopeptidase was measured in a fluorometric plate reader (Synergy HT, BioTek) with excitation and emission wavelengths set at 340 and 440 nm, respectively, every 30 seconds for 1 hour. The slope of the linear part of the reaction was calculated and used as readout of enzyme activity. […]
A variety of the bisnaphthalimidopropyl (BNIPs) derivatives, as well as the newly synthetized derivatives were evaluated as potential TcSir2rp1 inhibitors. The enzymatic reactions were performed using a commercially available CycLex SIRT1/Sir2 deacetylase fluorimetric kit (CycLex Co. Ltd., Nagano, Japan) in the absence and presence of the various inhibitors, 200 μM NAD^+ and 10 μM of peptide substrate as previously described.
A variety of the bisnaphthalimidopropyl (BNIPs) derivatives, as well as the newly synthetized derivatives were evaluated as potential TcSir2rp1 inhibitors. The enzymatic reactions were performed using a commercially available CycLex SIRT1/Sir2 deacetylase fluorimetric kit (CycLex Co. Ltd., Nagano, Japan) in the absence and presence of the various inhibitors, 200 µM NAD^+ and 10 µM of peptide substrate as previously described.

In another experiment the target is T1, human SIRT1 (Homo sapiens, UniProt Q96EB6).
T1 sequence (Q96EB6 1-747): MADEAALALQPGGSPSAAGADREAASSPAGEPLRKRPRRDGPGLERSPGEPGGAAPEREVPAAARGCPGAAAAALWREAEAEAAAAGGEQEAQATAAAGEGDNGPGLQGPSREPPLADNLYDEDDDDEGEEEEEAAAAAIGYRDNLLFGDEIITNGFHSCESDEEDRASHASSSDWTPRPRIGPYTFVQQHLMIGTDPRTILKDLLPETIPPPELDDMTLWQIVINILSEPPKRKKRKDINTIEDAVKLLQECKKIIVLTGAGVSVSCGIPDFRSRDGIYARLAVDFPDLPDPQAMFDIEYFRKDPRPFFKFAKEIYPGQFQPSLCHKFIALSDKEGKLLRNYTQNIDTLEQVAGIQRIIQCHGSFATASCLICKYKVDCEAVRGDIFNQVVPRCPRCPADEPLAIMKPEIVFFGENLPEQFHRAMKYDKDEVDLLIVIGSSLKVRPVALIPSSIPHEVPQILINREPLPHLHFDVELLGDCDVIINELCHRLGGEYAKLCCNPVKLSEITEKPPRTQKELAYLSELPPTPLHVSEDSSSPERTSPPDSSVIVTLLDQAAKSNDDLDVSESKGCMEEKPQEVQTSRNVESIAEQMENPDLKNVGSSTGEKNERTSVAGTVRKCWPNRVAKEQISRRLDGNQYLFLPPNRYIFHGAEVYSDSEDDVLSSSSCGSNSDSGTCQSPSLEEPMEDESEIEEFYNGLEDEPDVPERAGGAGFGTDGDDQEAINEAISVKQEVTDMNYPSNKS
Put plainly: hSIRT1 deacetylase inhibition (CycLex kit). In kind it is biochemical. Particulars: 200 μM.

For a further experiment, the target named is T2, TbSir2rp1 (Trypanosoma brucei brucei, UniProt Q57V41).
T2 construct: hexahistidine (C); made in house
Put plainly: TbSir2rp1 deacetylase inhibition. In kind it is biochemical. How it is done:
(§1) T. brucei Sir2rp1 (accession number: AAX70528.1) tagged with a C-terminal hexahistidine was expressed and characterized essentiality as described previously L. infantum Sir2rp1 was expressed and purified as previously described.
(§2) The deacetylase activity was measured using the commercial SIRT1/Sir2 Deacetylase Fluorometric Assay Kit (CycLex,Japan) according to the manufacturer’s recommendations. Briefly, fluorescence emission after digestion of deacetylated substrates by a lysine specific endopeptidase was measured in a fluorometric plate reader (Synergy HT, BioTek) with excitation and emission wavelengths set at 340 and 440 nm, respectively, every 30 seconds for 1 hour. The slope of the linear part of the reaction was calculated and used as readout of enzyme activity.

In another experiment the target is T3, LiSir2rp1 (Leishmania infantum, UniProt A0A6L0XH39).
T3 construct: made in house
The experiment is described as follows: LiSir2rp1 deacetylase inhibition. In kind it is biochemical. The method, then: as §1, §2

Another experiment has as its system T. cruzi amastigotes. Put plainly: High-content screening assay on intracellular T. cruzi amastigotes. In kind it is cell-based, Trypanosoma cruzi. Particulars: up to a concentration of 2000 μM (2 mM). The method, then: For the evaluation of the activity against T. cruzi amastigotes, high-content screening (HCS) was designed. In summary, 100 μL of host C2C12 cells (ATCC) were seeded in clear bottom black 96-well plates at a density of 2.5 x 10^4 cells/mL (2.5 × 10^3 cells/well). After 24 hrs, 50 μL of Y strain tissue culture-derived trypomastigotes were used to infect the host cells at a density of 7.5 x 10^5/mL (3.75 x 10^4 parasites/well). The parasites were allowed to infect for a 24 hr period, after which compounds were added in a volume of 50 μL. […] After 72 hrs of compound incubation, the wells were fixed with 4% paraformaldehyde for 15 to 30 mins. The plates were then washed once with deionized water and stained with a solution of DAPI (3 μM) for 1 hour. Plates were imaged in an INCell 2000 (GE Healthcare) high-content analyser by taking 16 pictures per well at 20 X objective amplification. Images were analysed with INCell Developer software (GE Healthcare) using the segmentation of host cell nuclei and parasite kinetoplast DNA. The measurement output used was the average number of parasites per cell calculated by the ratio of host cell nuclei/parasite kinetoplast DNA.
In this assay, the compounds are incubated for 72 hours with cells previously infected with wild-type trypomastigotes for 24 hours. The readout was done by comparing the average number of amastigotes per cell that developed by the end of the incubation period. The quality of the assay was statistically evaluated by the calculation of the z-factor [75], that represents the reliability of the assay in distinguishing positive controls confidently from negative controls. Varying from 0 to 1, z-factor values higher than 0.5 are considered acceptable for drug screening. The z-factor obtained was 0.68, validating the use of the assay (S3B Fig).

The test system of experiment [1] is Plasmodium falciparum Sir2A. Also noted: method as in PMID 19937668, PMID 18221799. The note with it: previously described; ref [46], [72]; cited from earlier work.

TcSir2rp1, sequence (Q4DVL9 entry or part of it): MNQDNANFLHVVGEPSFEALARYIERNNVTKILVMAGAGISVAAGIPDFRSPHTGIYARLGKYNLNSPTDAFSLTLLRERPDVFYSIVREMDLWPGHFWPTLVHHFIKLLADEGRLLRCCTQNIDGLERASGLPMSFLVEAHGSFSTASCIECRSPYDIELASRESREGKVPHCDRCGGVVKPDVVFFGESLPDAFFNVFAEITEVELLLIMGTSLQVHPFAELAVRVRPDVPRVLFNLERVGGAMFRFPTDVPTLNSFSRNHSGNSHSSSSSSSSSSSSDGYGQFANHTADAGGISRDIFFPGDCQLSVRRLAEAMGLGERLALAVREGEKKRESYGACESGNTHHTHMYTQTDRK
T2 sequence (Q57V41 whole entry): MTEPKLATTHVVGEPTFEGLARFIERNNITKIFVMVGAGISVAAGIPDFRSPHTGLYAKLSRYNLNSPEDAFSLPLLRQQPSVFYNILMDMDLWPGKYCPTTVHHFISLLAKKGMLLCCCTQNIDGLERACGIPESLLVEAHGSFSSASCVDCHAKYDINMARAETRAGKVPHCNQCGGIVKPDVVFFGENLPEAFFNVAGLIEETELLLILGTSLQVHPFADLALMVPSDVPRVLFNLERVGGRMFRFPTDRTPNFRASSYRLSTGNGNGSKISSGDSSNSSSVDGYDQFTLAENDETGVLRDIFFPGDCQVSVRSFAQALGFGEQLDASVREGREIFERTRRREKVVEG
T3 sequence (A0A6L0XH39 entry or part of it): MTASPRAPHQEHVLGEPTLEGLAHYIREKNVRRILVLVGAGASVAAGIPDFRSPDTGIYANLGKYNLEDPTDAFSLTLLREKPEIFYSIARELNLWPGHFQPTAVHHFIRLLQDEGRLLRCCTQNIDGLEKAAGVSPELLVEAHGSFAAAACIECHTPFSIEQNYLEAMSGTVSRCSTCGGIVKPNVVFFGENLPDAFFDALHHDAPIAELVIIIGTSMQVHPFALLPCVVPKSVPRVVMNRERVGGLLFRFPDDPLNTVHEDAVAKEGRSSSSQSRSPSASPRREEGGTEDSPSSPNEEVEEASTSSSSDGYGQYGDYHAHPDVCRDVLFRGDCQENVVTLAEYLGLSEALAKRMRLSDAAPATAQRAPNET

In general, IC50 refers to the concentration at which inhibition is half-maximal. One may read the inhibition as how much of the control response was suppressed. Turning to `NC(=O)c1cccnc1` [Nicotinamide, nicotinamide, reference compound], the IC50 on TcSir2rp1 (10 μM Ac-peptide and 200 μM NAD+, read-out: IC50 of TcSir2rp1 inhibition) was 456 ± 44 µM; in experiment [1] it was 51.2 ± 3 µM. Further, the inhibition at 200 µM came to 34 ± 1% on TcSir2rp1 (200 μM), 66 ± 10% against human SIRT1, 70 ± 5% at TbSir2rp1 and 82% on LiSir2rp1. Also, the “Activity in the amastigote assay” value with T. cruzi amastigotes is listed as “no amastigote anti-parasitic activity was detected”.

(Values after PMC5794198, “Inhibitors of Trypanosoma cruzi Sir2 related protein 1 as potential drugs against Chagas disease” (PLoS Neglected Tropical Diseases, 2018).)
